Values of other authors in US20010007758A1, “Treatment of multiple sclerosis using COP-1 and Th2-enhancing cytokines” (Autoimmune, Inc., priority 1998, published 2001).

What was measured:
MS = conditions: daily subcutaneous injections of 20 mg
EAE [1] = conditions: oral administration to rats
T cell = conditions: oral administration to rats
MBP-specific T cells = conditions: experiments in mice
[2] = tested on: T suppressor cells specific for MBP
[3] = tested on: experimental allergic encephalitis (EAE); conditions: in vivo
EAE [4] = conditions: oral feeding; EAE induced with 0.4 mg mouse MBP; monitored 35 days

Molecule | Expanded Disability Status Scale (MS) | annualized relapse rate, lower in treated patients (MS) [%] | proportion of patients that did not have a relapse in clinical disease (MS) [%] | severity and incidence of EAE (EAE [1]) | T cell proliferative responses (T cell) | TH1 cytokine production (T cell) | effect on MBP-specific T cells involved in destruction of central nervous system tissue in EAE (MBP-specific T cells) | induction of T suppressor cells specific for MBP [2] | encephalitogenicity (causes EAE when injected) [3] | delay in disease onset (EAE [4]) [days]
glatiramer acetate [COP-1] | significant improvement | 29 | 34 | suppressed | inhibited | inhibited | specifically inhibits | induce T suppressor cells | not encephalitogenic | –
MBP: myelin basic protein, a component of myelin in the central nervous system (protein, UniProt P02686 1-304, looked up) Myelin basic protein: MGNHAGKRELNAEKASTNSETNRGESEKKRNLGELSRTTSEDNEVFGEADANQNNGTSSQDTAVTDSKRTADPKNAWQDAHPADPGSRPHLIRLFSRDAPGREDNTFKDRPSESDELQTIQEDSAATSESLDVMASQKRPSQRHGSKYLATASTMDHARHGFLPRHRDTGILDSIGRFFGGDRGAPKRGSGKDSHHPARTAHYGSLPQKSHGRTQDENPVVHFFKNIVTPRTPPPSQGKGRGLSLSRFSWGAEGQRPGFGYGGRASDYKSAHKGFKGVDAQGTLSKIFKLGGRDSRSGSPMARR | – | – | – | – | – | – | – | – | highly encephalitogenic | 22
IL-4: interleukin-4, a Th2-enhancing cytokine (protein, UniProt P05112 25-153, looked up) Interleukin-4: HKCDITLQEIIKTLNSLTEQKTLCTELTVTDIFAASKNTTEKETFCRAATVLRQFYSHHEKDTRCLGATAQQFHRHKQLIRFLKRLDRNLWGLAGLNSCPVKEANQSTLENFLERLKTIMREKYSKCSS | – | – | – | – | – | – | – | – | – | 21
